Assay results taken from the NIST ThermoML archive (doi:10.1007/s10765-005-8096-3).

Test: refractive index (Na D-line) (dimensionless); xn = mol fraction of the nth substance listed
Settings: 101 kPa, Liquid, Standard Abbe refractometry

CC(C)Cc1ccccc1 [(2-methylpropyl)benzene] + CCCCOC(C)=O
refractive index
Settings	293.15 K	298.15 K	303.15 K	308.15 K	313.15 K
x2 = 0.056	1.48206	1.47965	1.47708	1.47442	1.47211
x2 = 0.1042	1.47812	1.47565	1.4731	1.47066	1.46813
x2 = 0.1619	1.47345	1.47097	1.4685	1.46595	1.4635
x2 = 0.201	1.47035	1.46781	1.46524	1.46268	1.46015
x2 = 0.2486	1.46644	1.46384	1.46128	1.45868	1.45618
x2 = 0.3027	1.4618	1.45922	1.45658	1.45405	1.45156
x2 = 0.3619	1.45664	1.45401	1.45147	1.44897	1.44641
x2 = 0.3994	1.4533	1.45072	1.44816	1.44564	1.4431
x2 = 0.4537	1.44838	1.44587	1.44328	1.44077	1.43826
x2 = 0.5056	1.44366	1.4411	1.43853	1.43602	1.43356
x2 = 0.5506	1.43942	1.43693	1.43443	1.43187	1.4294
x2 = 0.5973	1.43506	1.43254	1.43002	1.4275	1.42498
x2 = 0.6485	1.43012	1.42758	1.42505	1.42256	1.42003
x2 = 0.6954	1.42551	1.423	1.42052	1.41799	1.41549
x2 = 0.751	1.41999	1.41754	1.41506	1.41255	1.41004
x2 = 0.7981	1.41525	1.41278	1.4103	1.40782	1.40532
x2 = 0.8469	1.41021	1.40779	1.40535	1.4029	1.40036
x2 = 0.8995	1.40482	1.40235	1.39997	1.39757	1.39493
x2 = 0.9482	1.39966	1.3973	1.39479	1.39237	1.38994

CCCCOC(C)=O [butyl ethanoate] + CCc1ccccc1
refractive index
Settings	293.15 K	298.15 K	303.15 K	308.15 K	313.15 K
x1 = 0.0544	1.48984	1.48716	1.48442	1.48172	1.47899
x1 = 0.1008	1.48485	1.48219	1.47946	1.47673	1.47401
x1 = 0.1488	1.4796	1.47693	1.47418	1.47152	1.46884
x1 = 0.2024	1.47382	1.47116	1.46843	1.4658	1.4631
x1 = 0.254	1.46832	1.46568	1.46302	1.46037	1.45768
x1 = 0.2929	1.46417	1.46155	1.4589	1.45623	1.45354
x1 = 0.3526	1.45799	1.45536	1.45263	1.45	1.44729
x1 = 0.3989	1.45314	1.45054	1.44782	1.44526	1.44253
x1 = 0.4448	1.44842	1.44582	1.44315	1.44053	1.43785
x1 = 0.5021	1.44254	1.43999	1.43733	1.43472	1.43207
x1 = 0.5505	1.43764	1.43508	1.43242	1.42983	1.4272
x1 = 0.6041	1.43221	1.42967	1.42703	1.42449	1.42191
x1 = 0.6456	1.42806	1.42552	1.42292	1.42036	1.41779
x1 = 0.7003	1.42266	1.42015	1.41759	1.41507	1.41252
x1 = 0.7555	1.41729	1.41481	1.41224	1.40974	1.4072
x1 = 0.8016	1.41282	1.41035	1.40784	1.40537	1.40283
x1 = 0.8511	1.40813	1.40566	1.4032	1.40068	1.39815
x1 = 0.9009	1.40339	1.40097	1.39849	1.39597	1.39349
x1 = 0.9505	1.39875	1.39633	1.39386	1.39139	1.38895
